Patent US20150105252A1, “SUBSTITUTED PYRAZOLES AS HERBICIDES” (E I DU PONT DE NEMOURS AND COMPANY, priority 2013, published 2015)

Experiments:
wheat = assay: Test C postemergence; type: in vivo, Triticum aestivum
Method in brief: (§1)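 Herbicidal effect is expressed as percent visual control (0–100) judged against untreated plants 13 to 15 days after treatment in the greenhouse. Preemergence pots contained seeds in a soil–sand blend; postemergence plants, 2–18 cm tall, grew in peat-based planting medium.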

blackgrass = assay: Test C postemergence; type: in vivo, Alopecurus myosuroides; settings: for Plant response rating (scale of 0 to 100 where 0 is no effect and 100 is complete control), Blackgrass: Postemergence, 31 g ai/ha, visually evaluated after 13 to 15 days; for Blackgrass plant response rating / Plant response rating, Blackgrass: postemergence; for Blackgrass plant response rating: 62 g ai/ha, scale 0 to 100
Method in brief: as §1

soybean = assay: Test C postemergence; type: in vivo, Glycine max; settings: for Soybean plant response rating / Plant response rating, Soybean: postemergence
Method in brief: as §1

chickweed = assay: Test C postemergence; type: in vivo, Stellaria media; settings: for Plant response rating (scale of 0 to 100 where 0 is no effect and 100 is complete control), Chickweed: Postemergence, 31 g ai/ha, visually evaluated after 13 to 15 days; for Chickweed plant response rating / Plant response rating, Chickweed: postemergence; for Chickweed plant response rating: 62 g ai/ha, scale 0 to 100
Method in brief: as §1

corn = assay: Test C postemergence; type: in vivo, Zea mays; settings: for Plant response rating (scale of 0 to 100 where 0 is no effect and 100 is complete control), Corn: Postemergence, 31 g ai/ha, visually evaluated after 13 to 15 days; for Corn plant response rating / Plant response rating, Corn: postemergence; for Corn plant response rating: 62 g ai/ha, scale 0 to 100
Method in brief: as §1

ryegrass, Italian = assay: Test C postemergence; type: in vivo, Lolium multiflorum
Method in brief: as §1

morningglory = assay: Test C postemergence; type: in vivo, Ipomoea coccinea; settings: for Plant response rating (scale of 0 to 100 where 0 is no effect and 100 is complete control), Morningglory: Postemergence, 31 g ai/ha, visually evaluated after 13 to 15 days; for Morningglory plant response rating / Plant response rating, Morningglory: postemergence; for Morningglory plant response rating: 62 g ai/ha, scale 0 to 100
Method in brief: as §1

crabgrass, large = assay: Test C postemergence; type: in vivo, Digitaria sanguinalis; settings: for Plant response rating (scale of 0 to 100 where 0 is no effect and 100 is complete control), Crabgrass, Large: Postemergence, 31 g ai/ha, visually evaluated after 13 to 15 days; for Crabgrass, Large plant response rating / Plant response rating, Crabgrass, Large: postemergence; for Crabgrass, Large plant response rating: 62 g ai/ha, scale 0 to 100
Method in brief: as §1

barnyardgrass = assay: Test C postemergence; type: in vivo, Echinochloa crus-galli; settings: for Plant response rating (scale of 0 to 100 where 0 is no effect and 100 is complete control), Barnyardgrass: Postemergence, 31 g ai/ha, visually evaluated after 13 to 15 days; for Barnyardgrass plant response rating / Plant response rating, Barnyardgrass: postemergence; for Barnyardgrass plant response rating: 62 g ai/ha, scale 0 to 100
Method in brief: as §1

waterhemp = assay: Test C postemergence; type: in vivo, Amaranthus rudis
Method in brief: as §1

foxtail, giant = assay: Test C postemergence; type: in vivo, Setaria faberii; settings: for Plant response rating (scale of 0 to 100 where 0 is no effect and 100 is complete control), Foxtail, Giant: Postemergence, 31 g ai/ha, visually evaluated after 13 to 15 days; for Foxtail, Giant plant response rating / Plant response rating, Foxtail, Giant: postemergence; for Foxtail, Giant plant response rating: 62 g ai/ha, scale 0 to 100
Method in brief: as §1

lambsquarters = assay: Test C preemergence; type: in vivo, Chenopodium album; settings: for Lambsquarters plant response rating / Plant response rating, Lambsquarters: preemergence; for Plant response rating, Lambsquarters: 125 g ai/ha, scale 0 to 100, 0 = no effect, 100 = complete control
Source text: Seeds of plant species selected from blackgrass (Alopecurus myosuroides), ryegrass, Italian (Italian ryegrass, Lolium multiflorum), wheat (winter wheat, Triticum aestivum), galium (catchweed bedstraw, Galium aparine), corn (Zea mays), crabgrass, large (large crabgrass, Digitaria sanguinalis), foxtail, giant (giant foxtail, Setaria faberii), johnsongrass (Sorghum halepense), lambsquarters (Chenopodium album), morningglory (Ipomoea coccinea), nutsedge, yellow (yellow nutsedge, Cyperus esculentus), pigweed (redroot pigweed, Amaranthus retroflexus), ragweed (common ragweed, Ambrosia elation), soybean (Glycine max), barnyardgrass (Echinochloa crus-galli), oilseed rape (Brassica napus), waterhemp (common waterhemp, Amaranthus rudis), oat, wild (wild oat, Avena fatua), kochia (Kochia scoparia), Surinam grass (Brachiaria decumbens), foxtail, green (green foxtail, Setaria viridis), goosegrass (Eleusine indica), bromegrass, downy (downy bromegrass, Bromus tectorum), nightshade (eastern black nightshade, Solanum ptycanthum), cocklebur (common cocklebur, Xanthium strumarium), cupgrass, woolly (woolly cupgrass, Eriochloa villosa), bermudagrass (Cynodon dactylon), sunflower, (common oilseed sunflower, Helianthus annuus), Russian thistle (Salsola kali), and velvetleaf (Abutilon theophrasti) were planted into a blend of loam soil and sand and treated preemergence with test chemicals formulated in a non-phytotoxic solvent mixture which included a surfactant.
At the same time, plants selected from these crop and weed species and also chickweed (common chickweed, Stellaria media), canarygrass (littleseed canarygrass, Phalaris minor), and deadnettle (henbit deadnettle, Lamium amplexicaule), were planted in pots containing Redi-Earth® planting medium (Scotts Company, 14111 Scottslawn Road, Marysville, Ohio 43041) comprising spaghnum peat moss, vermiculite, wetting agent and starter nutrients and treated with postemergence applications of test chemicals formulated in the same manner. Plants ranged in height from 2 to 18 cm (1- to 4-leaf stage) for postemergence treatments. Treated plants and controls were maintained in a greenhouse for 13 to 15 days, after which time all species were compared to controls and visually evaluated. Plant response ratings, summarized in Table C, are based on a scale of 0 to 100 where 0 is no effect and 100 is complete control. A dash (-) response means no test result.

ragweed = assay: Test C postemergence; type: in vivo, Ambrosia elation
Method in brief: as §1

galium = assay: Test C postemergence; type: in vivo, Galium aparine; settings: for Plant response rating (scale of 0 to 100 where 0 is no effect and 100 is complete control), Galium: Postemergence, 31 g ai/ha, visually evaluated after 13 to 15 days; for Galium plant response rating / Plant response rating, Galium: postemergence; for Galium plant response rating: 62 g ai/ha, scale 0 to 100
Method in brief: as §1

[1] = Postemergence, 31 g ai/ha, visually evaluated after 13 to 15 days
[2] = postemergence, 62 g ai/ha, scale 0 to 100
[3] = postemergence, 250 g ai/ha, scale 0 to 100 (0 no effect, 100 complete control)
[4] = postemergence, 125 g ai/ha, scale 0 to 100, 0 no effect, 100 complete control
[5] = 250 g ai/ha, scale 0 to 100 (0 no effect, 100 complete control)
[6] = 125 g ai/ha, scale 0 to 100, 0 no effect, 100 complete control
[7] = 31 g ai/ha, visual rating, scale 0 to 100 (0 no effect, 100 complete control), 13 to 15 days
[8] = 62 g ai/ha, scale 0 to 100 (0 no effect, 100 complete control), 13 to 15 days

## CCCc1cc(C(=O)NCC)nn1Cc1cc(C(F)(F)F)nn1C [Compound 129]
wheat; [1]
  Plant response rating (scale of 0 to 100 where 0 is no effect and 100 is complete control), Wheat: 0
wheat; [2]
  Wheat plant response rating: 5
wheat; [3]
  Plant response rating, Wheat: 5
wheat; [4]
  Plant response rating, Wheat: 5
blackgrass
  Plant response rating (scale of 0 to 100 where 0 is no effect and 100 is complete control), Blackgrass: 10
  Blackgrass plant response rating: 5
blackgrass; [5]
  Plant response rating, Blackgrass: 20
blackgrass; [6]
  Plant response rating, Blackgrass: 35
soybean; [1]
  Plant response rating (scale of 0 to 100 where 0 is no effect and 100 is complete control), Soybean: 85
soybean; 62 g ai/ha, scale 0 to 100
  Soybean plant response rating: 98
soybean; [5]
  Plant response rating, Soybean: 98
soybean; [6]
  Plant response rating, Soybean: 98
chickweed
  Plant response rating (scale of 0 to 100 where 0 is no effect and 100 is complete control), Chickweed: 50
  Chickweed plant response rating: 70
chickweed; [5]
  Plant response rating, Chickweed: 100
chickweed; [6]
  Plant response rating, Chickweed: 80
corn
  Plant response rating (scale of 0 to 100 where 0 is no effect and 100 is complete control), Corn: 10
  Corn plant response rating: 10
corn; [5]
  Plant response rating, Corn: 15
corn; [6]
  Plant response rating, Corn: 15
ryegrass, Italian; [1]
  Plant response rating (scale of 0 to 100 where 0 is no effect and 100 is complete control), Ryegrass, Italian: 0
ryegrass, Italian; [2]
  Ryegrass, Italian plant response rating: 5
ryegrass, Italian; [3]
  Plant response rating, Ryegrass, Italian: 5
ryegrass, Italian; [4]
  Plant response rating, Ryegrass, Italian: 5
morningglory
  Plant response rating (scale of 0 to 100 where 0 is no effect and 100 is complete control), Morningglory: 80
  Morningglory plant response rating: 100
morningglory; [5]
  Plant response rating, Morningglory: 100
morningglory; [6]
  Plant response rating, Morningglory: 100
crabgrass, large
  Plant response rating (scale of 0 to 100 where 0 is no effect and 100 is complete control), Crabgrass, Large: 10
  Crabgrass, Large plant response rating: 10
crabgrass, large; [5]
  Plant response rating, Crabgrass, Large: 20
crabgrass, large; [6]
  Plant response rating, Crabgrass, Large: 35
barnyardgrass
  Plant response rating (scale of 0 to 100 where 0 is no effect and 100 is complete control), Barnyardgrass: 5
  Barnyardgrass plant response rating: 10
barnyardgrass; [5]
  Plant response rating, Barnyardgrass: 55
barnyardgrass; [6]
  Plant response rating, Barnyardgrass: 10
waterhemp; [1]
  Plant response rating (scale of 0 to 100 where 0 is no effect and 100 is complete control), Waterhemp: 65
waterhemp; [2]
  Waterhemp plant response rating: 90
waterhemp; [3]
  Plant response rating, Waterhemp: 90
waterhemp; [4]
  Plant response rating, Waterhemp: 80
foxtail, giant
  Plant response rating (scale of 0 to 100 where 0 is no effect and 100 is complete control), Foxtail, Giant: 15
  Foxtail, Giant plant response rating: 20
foxtail, giant; [5]
  Plant response rating, Foxtail, Giant: 45
foxtail, giant; [6]
  Plant response rating, Foxtail, Giant: 35
lambsquarters; Preemergence, 250 g ai/ha
  Plant response rating (scale of 0 to 100), Lambsquarters: 100
lambsquarters; [7]
  Lambsquarters plant response rating: 98
lambsquarters; [8]
  Lambsquarters plant response rating: 100
lambsquarters; 13 to 15 days
  Plant response rating, Lambsquarters: 100
ragweed; [1]
  Plant response rating (scale of 0 to 100 where 0 is no effect and 100 is complete control), Ragweed: 55
ragweed; [2]
  Ragweed plant response rating: 90
ragweed; [3]
  Plant response rating, Ragweed: 85
ragweed; [4]
  Plant response rating, Ragweed: 75
galium
  Plant response rating (scale of 0 to 100 where 0 is no effect and 100 is complete control), Galium: 60
  Galium plant response rating: 65
galium; [5]
  Plant response rating, Galium: 80
galium; [6]
  Plant response rating, Galium: 80

## CCc1cc(C(=O)NC2CC2)nn1Cc1ccnc(OCC(F)(F)F)c1 [Compound 200]
wheat; [3]
  Plant response rating, Wheat: 10
blackgrass
  Plant response rating (scale of 0 to 100 where 0 is no effect and 100 is complete control), Blackgrass: 5
  Blackgrass plant response rating: 10
blackgrass; [5]
  Plant response rating, Blackgrass: 15
blackgrass; [6]
  Plant response rating, Blackgrass: 15
soybean; [5]
  Plant response rating, Soybean: 90
soybean; [6]
  Soybean plant response rating: 90
chickweed
  Plant response rating (scale of 0 to 100 where 0 is no effect and 100 is complete control), Chickweed: 75
  Chickweed plant response rating: 75
chickweed; [5]
  Plant response rating, Chickweed: 90
chickweed; [6]
  Plant response rating, Chickweed: 90
corn
  Plant response rating (scale of 0 to 100 where 0 is no effect and 100 is complete control), Corn: 5
  Corn plant response rating: 5
corn; [5]
  Plant response rating, Corn: 20
corn; [6]
  Plant response rating, Corn: 10
ryegrass, Italian; [3]
  Plant response rating, Ryegrass, Italian: 15
ryegrass, Italian; [4]
  Plant response rating, Ryegrass, Italian: 15
morningglory
  Plant response rating (scale of 0 to 100 where 0 is no effect and 100 is complete control), Morningglory: 65
  Morningglory plant response rating: 65
morningglory; [5]
  Plant response rating, Morningglory: 75
morningglory; [6]
  Plant response rating, Morningglory: 75
crabgrass, large
  Plant response rating (scale of 0 to 100 where 0 is no effect and 100 is complete control), Crabgrass, Large: 10
  Crabgrass, Large plant response rating: 10
crabgrass, large; [5]
  Plant response rating, Crabgrass, Large: 25
crabgrass, large; [6]
  Plant response rating, Crabgrass, Large: 10
barnyardgrass
  Plant response rating (scale of 0 to 100 where 0 is no effect and 100 is complete control), Barnyardgrass: 0
  Barnyardgrass plant response rating: 5
barnyardgrass; [5]
  Plant response rating, Barnyardgrass: 10
barnyardgrass; [6]
  Plant response rating, Barnyardgrass: 5
waterhemp; [3]
  Plant response rating, Waterhemp: 85
foxtail, giant
  Plant response rating (scale of 0 to 100 where 0 is no effect and 100 is complete control), Foxtail, Giant: 5
  Foxtail, Giant plant response rating: 10
foxtail, giant; [5]
  Plant response rating, Foxtail, Giant: 15
foxtail, giant; [6]
  Plant response rating, Foxtail, Giant: 15
lambsquarters; [7]
  Lambsquarters plant response rating: 75
lambsquarters; [8]
  Lambsquarters plant response rating: 100
lambsquarters; 13 to 15 days
  Plant response rating, Lambsquarters: 100
lambsquarters; 250 g ai/ha, scale 0 to 100, 0 is no effect, 100 is complete control
  Lambsquarters plant response rating: 100
ragweed; [3]
  Plant response rating, Ragweed: 45
ragweed; [4]
  Plant response rating, Ragweed: 45
galium
  Plant response rating (scale of 0 to 100 where 0 is no effect and 100 is complete control), Galium: 50
  Galium plant response rating: 50
galium; [5]
  Plant response rating, Galium: 75
galium; [6]
  Plant response rating, Galium: 75
